These results are taken from patent US9969887B2, “Merocyanine-based compounds, and dyes, kits and contrast medium compositions for labelling biomolecules comprising the same” (SFC CO., LTD., priority 2016, dated 2018).

Series [1] is described as follows: Absorption and emission spectra, molar extinction coefficient and quantum efficiency in solvent. Type of series: physicochemical. The procedure:
Absorption spectra (λabs), emission spectra (λem), molar extinction coefficient (ε) and quantum efficiency of compounds 1 to 8 obtained in Preparation Examples 1 to 4, and commercially available SYBR® safe were measured and shown in Table 1 below.
Absorption spectra (λabs), emission spectra (λem), molar extinction coefficient (ε) and quantum efficiency of Compounds 36 to 39 obtained in Preparation Examples 6 and 7 and commercially available SYBR® safe were measured and shown in Table 2 below.

In a further series the test system is DNA. As to the kind of experiment: Absorption and emission spectra and quantum efficiency in the presence of DNA. It is filed as physicochemical. The method, then: Absorption spectra (λabs), emission spectra (λem) and quantum efficiency measured in the presence of DNA with compounds 1 to 8 and 36 to 39, and commercially available SYBR® safe were measured and are shown in Table 3 below.

Consider `O=C(CCCCCN1C=CC2=C3c4sc5ccccc5[n+]4CCC3Oc3cccc1c32)NCCOCCNC(=O)CCCCCN1C=CC2=C3c4sc5ccccc5[n+]4CCC3Oc3cccc1c32` (centres unmarked) [Compound 1], for which, in series [1] (DMSO), the Quantum efficiency worked out at 0.52, the “ε (molar extinction coefficient)” value was 109,000 M^−1cm^−1, the λabs is 517 nm and the λem is 567 nm. For the same compound, in series [1] (buffer), the Quantum efficiency came out at 0.03, the “ε (molar extinction coefficient)” value was 92,000 M^−1cm^−1, the λabs is listed as 484 nm and the λem was determined as 568 nm. For the same compound, in the series with DNA, the Quantum efficiency was determined as 1.00, the λabs worked out at 517 nm and the λem was 541 nm.
Turning to `O=C(CCCCCN1C=CC2=C3c4sc5ccccc5[n+]4CCC3Oc3cccc1c32)NCCCOCCOCCOCCCNC(=O)CCCCCN1C=CC2=C3c4sc5ccccc5[n+]4CCC3Oc3cccc1c32` (centres unmarked) [Compound 2], in series [1] (DMSO), the Quantum efficiency is 0.88, the “ε (molar extinction coefficient)” value is given as 101,000 M^−1cm^−1, the λabs is 517 nm and the λem was 566 nm. In addition, in series [1] (buffer), the Quantum efficiency came to 0.08, the “ε (molar extinction coefficient)” value was 83,000 M^−1cm^−1, the λabs is 484 nm and the λem is 565 nm. In the series with DNA, the Quantum efficiency came to 0.93, the λabs is listed as 517 nm and the λem is 541 nm.
Turning to `O=C(CCCCCN1C=CC2=C3c4sc5ccccc5[n+]4CCC3Oc3cccc1c32)NCCOCCOCCNC(=O)CCCCCN1C=CC2=C3c4sc5ccccc5[n+]4CCC3Oc3cccc1c32` (centres unmarked) [Compound 3], in series [1] (DMSO), the Quantum efficiency is listed as 0.55, the “ε (molar extinction coefficient)” value is 84,000 M^−1cm^−1, the λabs was found to be 517 nm and the λem is reported as 565 nm. In series [1] (buffer), the Quantum efficiency was determined as 0.03, the “ε (molar extinction coefficient)” value is listed as 66,000 M^−1cm^−1, the λabs was found to be 484 nm and the λem amounted to 564 nm. In the series on DNA, the Quantum efficiency is recorded as 0.86, the λabs stood at 517 nm and the λem amounted to 540 nm.
Take `O=C(CCCCCN1C=CC2=C3c4sc5ccccc5[n+]4CCC3Oc3cccc1c32)NCCOCCOCCOCCNC(=O)CCCCCN1C=CC2=C3c4sc5ccccc5[n+]4CCC3Oc3cccc1c32` (centres unmarked) [Compound 4]: in series [1] (DMSO), the Quantum efficiency turned out to be 0.73, the “ε (molar extinction coefficient)” value is 95,000 M^−1cm^−1, the λabs was found to be 517 nm and the λem was 565 nm. In addition, in series [1] (buffer), the Quantum efficiency is reported as 0.03, the “ε (molar extinction coefficient)” value is 85,000 M^−1cm^−1, the λabs is given as 484 nm and the λem was 566 nm. Further, in the series with DNA, the Quantum efficiency turned out to be 0.88, the λabs is on record as 517 nm and the λem is 539 nm.
`O=C(CCCCCN1C=CC2=C3c4sc5ccc(Cl)cc5[n+]4CCC3Oc3cccc1c32)NCCOCCNC(=O)CCCCCN1C=CC2=C3c4sc5ccc(Cl)cc5[n+]4CCC3Oc3cccc1c32` (centres unmarked) [Compound 5]: in series [1] (DMSO), the Quantum efficiency was 0.64, the “ε (molar extinction coefficient)” value is on record as 73,000 M^−1cm^−1, the λabs is listed as 517 nm and the λem is 564 nm. In series [1] (buffer), the Quantum efficiency is reported as 0.05, the “ε (molar extinction coefficient)” value was 60,000 M^−1cm^−1, the λabs worked out at 484 nm and the λem was 562 nm. Also, in the series with DNA, the Quantum efficiency was 0.86, the λabs is reported as 517 nm and the λem came to 537 nm.
As to `O=C(CCCCCN1C=CC2=C3c4sc5ccc(Cl)cc5[n+]4CCC3Oc3cccc1c32)NCCOCCOCCOCCNC(=O)CCCCCN1C=CC2=C3c4sc5ccc(Cl)cc5[n+]4CCC3Oc3cccc1c32` (centres unmarked) [Compound 7], in series [1] (DMSO), the Quantum efficiency is 0.64, the “ε (molar extinction coefficient)” value is 83,000 M^−1cm^−1, the λabs turned out to be 517 nm and the λem is given as 563 nm. In series [1] (buffer), the Quantum efficiency turned out to be 0.06, the “ε (molar extinction coefficient)” value is listed as 75,000 M^−1cm^−1, the λabs stood at 484 nm and the λem was determined as 560 nm. Besides, in the series with DNA, the Quantum efficiency is 0.71, the λabs amounted to 517 nm and the λem came out at 538 nm.
`O=C(CCCCCN1C=CC2=C3c4sc5ccc(Cl)cc5[n+]4CCC3Oc3cccc1c32)NCCCOCCOCCOCCCNC(=O)CCCCCN1C=CC2=C3c4sc5ccc(Cl)cc5[n+]4CCC3Oc3cccc1c32` (centres unmarked) [Compound 8]: in series [1] (DMSO), the Quantum efficiency came out at 0.71, the “ε (molar extinction coefficient)” value is reported as 89,000 M^−1cm^−1, the λabs was found to be 517 nm and the λem turned out to be 563 nm. In addition, in series [1] (buffer), the Quantum efficiency is on record as 0.04, the “ε (molar extinction coefficient)” value was 78,000 M^−1cm^−1, the λabs came out at 484 nm and the λem is on record as 565 nm. In the series with DNA, the Quantum efficiency came out at 0.80, the λabs was determined as 517 nm and the λem is 538 nm.
With `O=C(CCCCCN1C=CC2=C3c4oc5ccccc5[n+]4CCC3Oc3cccc1c32)NCCOCCNC(=O)CCCCCN1C=CC2=C3c4oc5ccccc5[n+]4CCC3Oc3cccc1c32` (centres unmarked) [Compound 36], in series [1] (DMSO), the Quantum efficiency is 0.65, the “ε (molar extinction coefficient)” value is 95,000 M^−1cm^−1, the λabs was found to be 492 nm and the λem stood at 520 nm. In series [1] (buffer), the Quantum efficiency is recorded as 0.12, the “ε (molar extinction coefficient)” value is reported as 83,000 M^−1cm^−1, the λabs came out at 458 nm and the λem amounted to 526 nm. In the series on DNA, the Quantum efficiency is given as 0.67, the λabs is on record as 492 nm and the λem stood at 511 nm.
On to `O=C(CCCCCN1C=CC2=C3c4oc5ccccc5[n+]4CCC3Oc3cccc1c32)NCCOCCOCCNC(=O)CCCCCN1C=CC2=C3c4oc5ccccc5[n+]4CCC3Oc3cccc1c32` (centres unmarked) [Compound 37], for which, in series [1] (DMSO), the Quantum efficiency was 0.63, the “ε (molar extinction coefficient)” value is reported as 100,000 M^−1cm^−1, the λabs stood at 492 nm and the λem was determined as 520 nm. In series [1] (buffer), the Quantum efficiency is reported as 0.14, the “ε (molar extinction coefficient)” value is recorded as 85,000 M^−1cm^−1, the λabs was determined as 458 nm and the λem turned out to be 524 nm. Also, in the series with DNA, the Quantum efficiency is 0.64, the λabs was 492 nm and the λem is given as 512 nm.
Regarding `O=C(CCCCCN1C=CC2=C3c4oc5ccccc5[n+]4CCC3Oc3cccc1c32)NCCCOCCOCCOCCCNC(=O)CCCCCN1C=CC2=C3c4oc5ccccc5[n+]4CCC3Oc3cccc1c32` (centres unmarked) [Compound 39], in series [1] (DMSO), the Quantum efficiency is 0.70, the “ε (molar extinction coefficient)” value is reported as 116,000 M^−1cm^−1, the λabs was determined as 492 nm and the λem worked out at 520 nm. Moreover, in series [1] (buffer), the Quantum efficiency was found to be 0.15, the “ε (molar extinction coefficient)” value was 98,000 M^−1cm^−1, the λabs was 459 nm and the λem was determined as 523 nm. Further, in the series with DNA, the Quantum efficiency is reported as 0.70, the λabs is on record as 492 nm and the λem is given as 513 nm.
